Legend:
Caco-2 cells = assay: Caco Permeability Assay; type: in vitro ADME; conditions: Caco-2 cells, 3 μM compound
[1] = system: IL-6 levels in human whole blood stimulated with a TLR2 agonist; assay: IRAK4 Whole Blood Assay (lipoteichoic acid/TLR2-stimulated IL-6); type: cell-based; conditions: lipoteichoic acid 10 μg/mL, IL-6 readout
Procedure, shortened: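 ACD-A-anticoagulated human whole blood was preincubated with compounds for 60 min at 37 °C under 5% CO2. It was then stimulated with 10 μg/mL lipoteichoic acid (final) in RPMI for 5 h. IL-6 in plasma supernatants was measured by flow cytometry bead assay.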

IRAK4 = IRAK4 (Homo sapiens (Human), UniProt Q9NWZ3); assay: IRAK4 Inhibition Assay; type: biochemical; conditions: ATP 500 μM; IRAK4 0.6 nM
Chain of IRAK4 (Q9NWZ3 whole entry): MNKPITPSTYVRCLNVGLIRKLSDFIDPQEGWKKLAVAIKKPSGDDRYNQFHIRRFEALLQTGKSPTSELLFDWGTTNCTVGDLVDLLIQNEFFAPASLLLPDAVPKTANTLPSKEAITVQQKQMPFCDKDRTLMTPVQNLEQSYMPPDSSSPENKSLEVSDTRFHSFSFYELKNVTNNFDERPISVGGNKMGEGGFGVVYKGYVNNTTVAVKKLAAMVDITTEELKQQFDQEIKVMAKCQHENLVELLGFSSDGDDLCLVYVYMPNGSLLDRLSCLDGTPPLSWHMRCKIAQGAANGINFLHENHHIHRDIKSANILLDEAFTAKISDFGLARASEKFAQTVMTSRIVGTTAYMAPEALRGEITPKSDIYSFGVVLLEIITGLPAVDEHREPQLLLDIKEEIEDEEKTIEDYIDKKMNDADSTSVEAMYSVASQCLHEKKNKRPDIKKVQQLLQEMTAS
Procedure, shortened: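 Enzyme 0.6 nM, ATP 500 μM, FL-peptide 1.5 μM, DMSO 1.6%; HEPES pH 7.2/MgCl2/Brij 35/DTT buffer. RT, 60 min, EDTA stop. Mobility-shift product/substrate ratio; % inhib vs no-enzyme and vehicle controls.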

Caco Permeability Assay = type: in vitro ADME; conditions: human, Caco-2, Caco-2 cells, 3 μM compound

Row | SMILES | Caco-2 Permeability (Caco-2 cells) [×10⁻⁶ cm/s] | EC50 [1] [nM] | IC50 (IRAK4) [nM] | EC50 ([1]; Homo sapiens) [nM] | Papp at 2 h, 3 µM (Caco Permeability Assay) [×10⁻⁶ cm/s]
1 | CC(C)(O)[C@H](F)CNC(=O)c1cnc(-c2cnn3cc(Cl)cnc23)cc1NCCC(F)(F)F [Example 46, (R)-6-(6-chloropyrazolo[1,5-a]pyrimidin-3-yl)-N-(2-fluoro-3-hydroxy-3-methylbutyl)-4-((3,3,3-trifluoropropyl)amino) nicotinamide] | 24.1 | 1970 | 5 |  | 
2 | CCCNc1cc(-c2cnn3cc(Cl)cnc23)ncc1C(=O)NC[C@@H](F)C(C)(C)O [Example 66, (R)-6-(6-chloropyrazolo[1,5-a]pyrimidin-3-yl)-N-(2-fluoro-3-hydroxy-3-methylbutyl)-4-(propylamino)nicotinamide] | 21.2 |  | 3 |  | 
3 | CC(C)(O)[C@H](F)CNC(=O)c1cnc(-c2cnn3cc(Cl)cnc23)cc1NC1CCC(F)C1 (stereo partly drawn) [Example 84, 6-(6-chloropyrazolo[1,5-a]pyrimidin-3-yl)-N—((R)-2-fluoro-3-hydroxy-3-methylbutyl)-4-((3-fluorocyclopentyl)amino)nicotinamide] | 12 | 320 | 2 |  | 
4 | CCCNc1cc(-c2cnn3cc(Cl)cnc23)ncc1C(=O)NC[C@@H](F)C(C)(C)O [Example 159, (R)-6-(6-chloropyrazolo[1,5-a]pyrimidin-3-yl)-N-(2-fluoro-3-hydroxy-3-methylbutyl)-4-(propylamino)nicotinamide] | 9.5 |  |  | 1000 | 
5 | CC1(Nc2cc(-c3cnc4cc(Cl)cnn34)ncc2C(=O)NC[C@H](F)C(C)(C)O)CC1 [Example 207, (S)-6-(7-chloroimidazo[1,2-b]pyridazin-3-yl)-N-(2-fluoro-3-hydroxy-3-methylbutyl)-4-((1-methylcyclopropyl)amino)nicotinamide] | 9.7 | 260 |  |  | 
6 | CC(C)(O)[C@H](F)CNC(=O)c1cnc(-c2cnn3cc(C#N)cnc23)cc1Nc1cnn(CC(F)(F)F)c1 [Example 241, (R)-6-(6-cyanopyrazolo[1,5-a]pyrimidin-3-yl)-N-(2-fluoro-3-hydroxy-3-methylbutyl)-4-((1-(2,2,2-trifluoroethyl)-1H-pyrazol-4-yl)amino)nicotinamide] | <1.5 | 130 | 2 |  | 
7 | CC(C)(F)Cn1cc(Nc2cc(-c3cnc4cc(C#N)cnn34)ncc2C(=O)NC[C@@H](F)C(C)(C)O)cn1 [Example 279, (R)-6-(7-cyanoimidazo[1,2-b]pyridazin-3-yl)-4-((1-(2-fluoro-2-methylpropyl)-1H-pyrazol-4-yl)amino)-N-(2-fluoro-3-hydroxy-3-methylbutyl)nicotinamide] |  |  | 1 | 780 | < 1.5
8 | CC(C)(O)[C@H](F)CNC(=O)c1cnc(-c2cnc3cc(C#N)cnn23)cc1Nc1cc2n(n1)CCN(CC(F)F)C2 [Example 280, (R)-6-(7-cyanoimidazo[1,2-b]pyridazin-3-yl)-4-((5-(2,2-difluoroethyl)-4,5,6,7-tetrahydropyrazolo[1,5-a]pyrazin-2-yl)amino)-N-(2-fluoro-3-hydroxy-3-methylbutyl)nicotinamide] |  |  | 6 | 330 | < 1.5
9 | CC(C)(O)[C@H](F)CNC(=O)c1cnc(-c2cnc3cc(C#N)cnn23)cc1Nc1cnn(CCCF)c1 [Example 281, (R)-6-(7-cyanoimidazo[1,2-b]pyridazin-3-yl)-N-(2-fluoro-3-hydroxy-3-methylbutyl)-4-((1-(3-fluoropropyl)-1H-pyrazol-4-yl)amino)nicotinamide] |  |  | 2 | 290 | < 1.5
10 | CC(C)(O)[C@H](F)CNC(=O)c1cnc(-c2cnc3cc(C#N)cnn23)cc1Nc1cnn(C2CC2)c1 [Example 284, (R)-6-(7-cyanoimidazo[1,2-b]pyridazin-3-yl)-4-((1-cyclopropyl-1H-pyrazol-4-yl)amino)-N-(2-fluoro-3-hydroxy-3-methylbutyl)nicotinamide] |  |  | 2 | 210 | < 1.5
11 | CC(C)(O)[C@H]1CC[C@H](NC(=O)c2cnc(-c3cnc4cc(C#N)cnn34)cc2Nc2cnn(C3CC3)c2)CC1 [Example 286, 6-(7-cyanoimidazo[1,2-b]pyridazin-3-yl)-4-((1-cyclopropyl-1H-pyrazol-4-yl)amino)-N-((1r,4r)-4-(2-hydroxypropan-2-yl)cyclohexyl) nicotinamide] |  |  | 2 | 180 | 5.5
12 | CC(C)n1cc(Nc2cc(-c3cnc4cc(C#N)cnn34)ncc2C(=O)NCCC(C)(C)O)cn1 [Example 287, 6-(7-cyanoimidazo[1,2-b]pyridazin-3-yl)-N-(3-hydroxy-3-methylbutyl)-4-((1-isopropyl-1H-pyrazol-4-yl)amino)nicotinamide] |  |  | 9 | 450 | 1.8

— patent US10618903B2, “Heteroaryl substituted aminopyridine compounds” (BRISTOL-MYERS SQUIBB COMPANY, priority 2015, dated 2020)
